Experimental data: publication PMC9251361, “Effects of LPS Composition in Escherichia coli on Antibacterial Activity and Bacterial Uptake of Antisense Peptide-PNA Conjugates” (Frontiers in Microbiology, 2022)
In brackets after ≈: the same amount, converted by molar mass.

Columns and labels:
[1] = tested on: E. coli tolB, tolQ, and tolR mutants; test: MIC broth microdilution, tol mutants as a group; assay type: cell-based, Escherichia coli
Procedure: (§1) Minimum inhibitory concentration (MIC) values were determined by broth microdilution according to standard protocols adapted to peptide-based antimicrobial compounds (Goltermann and Nielsen, [2020]). Briefly, 190 μl bacterial cell culture containing ≈10^5 cfu/ml was dispensed into a 96-well plate (Thermo Scientific, Nunc Cat. No. 260896, 96F straight w/lid) along with 10 μl PNA stock solution or antibiotic. The plate was incubated in a Tecan Genios plate reader at 37°C for 18 h, and OD was measured every 20 min at 595 nm. The MIC was determined as the lowest concentration, which inhibited visible growth (OD < 0.1) in the wells. […] Experiments were performed in triplicates as a minimum.
The Pal-Tol-system, an envelope spanning complex involved in maintaining the outer membrane integrity, has previously been implicated in general antibiotic susceptibility, and thus was also investigated.

[2] = tested on: E. coli BW25113 metL mutant (Keio collection); test: MIC broth microdilution; assay type: cell-based; details: Escherichia coli, BW25113, 18 h, read-out: MIC values, Carbenicillin
Procedure: (§2) All strains used in this study are listed in Supplementary Table S1. E. coli strains WD101 and WD101ΔeptAΔarnD (WD101ΔΔ) were kindly provided by Professor M. Stephen Trent (University of Georgia, USA). E. coli strains DB wild type, DB L5, and DB L9 were kindly provided by Dr. Douglas Browning (University of Birmingham, UK). Single deletion strains for envelope mutants were obtained from the Keio-collection (Baba et al., [2006]). All strains were grown in non-cation adjusted Muller Hinton broth (MHB) (Sigma, Cat. No. 70192). BPP-PNA conjugates (Table 1) were obtained as described previously (Good et al., [2001]; Ghosal et al., [2013]; Hansen et al., [2016]).
as §1

[3] = tested on: E. coli BW25113 hydN mutant (Keio collection); test: MIC broth microdilution; assay type: cell-based; details: Escherichia coli, BW25113, 18 h, read-out: MIC values, Carbenicillin
Procedure: as §2, §1

[4] = tested on: E. coli BW25113 mrcB mutant (Keio collection); test: MIC broth microdilution; assay type: cell-based; details: Escherichia coli, BW25113, 18 h, read-out: MIC values, Carbenicillin
Procedure: as §2, §1

[5] = tested on: E. coli BW25113 ppiB mutant (Keio collection); test: MIC broth microdilution; assay type: cell-based; details: Escherichia coli, BW25113, 18 h, read-out: MIC values, Carbenicillin
Procedure: as §2, §1

[6] = tested on: E. coli BW25113 tolR mutant (Keio collection); test: MIC broth microdilution; assay type: cell-based; details: Escherichia coli, BW25113, 18 h, read-out: MIC values, Carbenicillin
Procedure: as §2, §1

[7] = tested on: E. coli BW25113 tolQ mutant (Keio collection); test: MIC broth microdilution; assay type: cell-based; details: Escherichia coli, BW25113, 18 h, read-out: MIC values, Carbenicillin
Procedure: as §2, §1

[8] = tested on: E. coli BW25113 tolB mutant (Keio collection); test: MIC broth microdilution; assay type: cell-based; details: Escherichia coli, BW25113, 18 h, read-out: MIC values, Carbenicillin
Procedure: as §2, §1

[9] = tested on: E. coli BW25113; test: MIC broth microdilution; assay type: cell-based; details: Escherichia coli; Table 4; strain BW25113; MHB, 37°C, 18 h; read-out: MIC values, Carbenicillin
Procedure: as §2, §1

[10] = tested on: E. coli K12 MG1655; test: microbe, parasite or virus in culture; assay type: cell-based, Escherichia coli; details: Escherichia coli; Table 4; strain MG1655; MHB, 37°C, 18 h; read-out: MIC values, Carbenicillin
Procedure: as §2, §1

SMILES: CC1(C)S[C@@H]2[C@H](NC(=O)C(C(=O)O)c3ccccc3)C(=O)N2[C@H]1C(=O)O (stereo partly shown) [Carbenicillin]
- fold increase in carbenicillin susceptibility [1]: circa 8 fold
- MIC [2]: 16 µg/mL (≈ 42.3 µM)
- MIC [3]: 16 µg/mL (≈ 42.3 µM)
- MIC [4]: 4 µg/mL (≈ 10.6 µM)
- MIC [5]: 16 µg/mL (≈ 42.3 µM)
- MIC [6]: 2 to 4 µg/mL (≈ 5.29 to 10.6 µM)
- MIC [7]: ≤ 2 µg/mL
- MIC [8]: ≤ 2 µg/mL
- MIC [9]: 8 µg/mL (≈ 21.1 µM)
- MIC [10]: 16 µg/mL (≈ 42.3 µM)
